Laboratory results as given in patent publication US5219867A, “Platelet aggregation inhibitory agents” (priority 1992, dated 1993).
“And” between values parts separate entries of the source, which are not always exact repeats. Equal values may be shown once. Where a name gives a salt, the structure may show the parent alone. Read-outs that look alike come from different tables or passages of the source.

Tests used:
[1] = tested on: male ICR mice; experiment: Mouse antithrombotic assay (collagen-epinephrine thromboembolic death); assay type: in vivo; conditions: for ED50: ip, 30 min before i.v. collagen-epinephrine challenge, read-out: ED50 (protection from thromboembolic death)
Experimental: The method employed is similar to Myers, et al's (Proc. Soc. Exp. Biol. Med., Vol. 183, Pages 86-91, 1986) modification of the procedure of DiMinno and Silver (J. Pharmacl. Exp. Therap., Vol. 225, Pages 57-60, 1983). Male ICR mice 25 g-35 g were used in this study. Collagenreagent Horm, containing 1 mg/ml of native collagen fibrils from equine tendons suspended in isotonic glucose solution of pH 2.7 was obtained from Horm -Chemie Momchem GMBH, Munchen, Germany; Epinephrine Injection, USP 1 mg/ml was from Abbott Laboratories, North Chicago, Ill.
Rac.I.2HBr was dissolved in physiological saline and (+)-I (I-C) was dissolved in saline at pH 6.5 at a concentration which yielded the desired dosage when 10 ml/kg of the compound solution was injected intraperitoneally (i.p.) to the mouse. Control mice received 10 ml/kg of the solvent/vehicle intraperitoneally.
Thirty (30) minutes after administration of test compound, the mouse was challenged with intravenous collagen-epinephrine suspension. The procedure is as follows: Fifteen (15) minutes after i.p. administration of test compound, the mouse was given 50-60 mg/kg of pentobarbital sodium (Nembutal). About 10-12 minutes later (when the mouse was anesthetized) the jugular vein was surgically exposed in preparation for the intravenous collagen-epinephrine injection.
Thirty (30) minutes after i.p. administration of the test compound (and about 15 minutes after i.p. Nembutal) the mouse's platelets were challenged with 0.00333 ml/gm (0.10 ml/30 gm mouse) of the intravenous collagen-epinephrine suspension into the jugular vein. [The collagen-epinephrine suspension contained 0.15 mg collagen fibrils and 0.018 mg of epinephrine per ml of the suspension]. The rate of injection for the collagen-epinephrine suspension was consistent from one mouse to the next.
Graded doses of the compound were administered to mice prior to the aggregation challenge. The ED50 was determined graphically from a Probit-log plot of percent of mice protected (Probit) by each dose (log scale) of the compound. […]

[2] = tested on: cytosolic ionized calcium in human platelets; experiment: Inhibition of collagen-induced rise in cytosolic ionized calcium (aequorin luminescence); assay type: cell-based; conditions: for IC50: 1mM [Ca2+]o (n = 4), read-out: Ica50 ± S.E. Collagen-induced (50% inhibition of collagen-induced rise in cytosolic ionized calcium)
Experimental: Procedure for Cytosolic Ionized Calcium Determination. The basic procedure of Yamaguchi, et al. (Thromb. Res., Vol. 44, Pages 165-174, 1986) was followed. Blood was collected from six blood donors, aged 24-38 years, who had fasted overnight and affirmed abstinence from alcohol, caffeine and medications of any kind for a period of at least one week prior to donation. […] Platelets were collected (800 g, 15 min), resuspended in and washed (800 g, 15 min) with HEPES-buffered saline (140 mM NaCl, 2.7 mM KCl, 0.1% bovine albumin, 0.5% glucose, 3.8 mM HEPES, pH 7.6) with EGTA (5 mM) and PGE1 (1 μM). The platelet pellet was resuspended in 90 μl of the same buffer and added to 20μl of 3 mg/ml aequorin solution in a 1.5 ml Eppendorf centrifuge tube. Six 1 μl aliquots of DMSO were added at 90 second intervals with brief, gentle mixing on a Vortex mixer and the platelet suspension was incubated 2 minutes after the last addition. One ml of HEPES-buffered saline was added, gently mixed, and again incubated for 2 minutes. The platelets were pelleted (1000 g, 30 sec), resuspended in HEPES-buffered saline to which was added either 1 mM Mg Cl2, (calcium-free buffer) or 1 mM Mg Cl2 and 1 mM Ca Cl2 (calcium buffer), depending on the experiment. The platelet count was adjusted to 3-4×10^5 platelets/μl.
The Platelet Ionized Calcium Aggregometer (Chrono-Log Corp., Ltd., Havertown, Pa.) was used to obtain simultaneous aggregation and luminescence data under the following experimental conditions: (1) platelet suspension, 1 ml, was equilibrated at 37° C. with stirring at 1100 rpm; (2) 100 μl (1.2 μg) of fibrinogen was added; (3) the vehicle (95% ethanol) or the test compound in vehicle was added; (4) when needed, 10 μl of the desired concentration of EGTA was added 30 seconds prior to addition of the agonist; then (5) the agonist (Collagen, 5 μg or 20 μg) was added and the time noted. At one minute after addition of the agonist in Channel 1, a platelet sample containing fibrinogen in Channel 2 was lysed with 10 μl of a 1:1 solution of Triton X-100 (final concentration 0.005%) 10 mM CaCl2 (final concentration 0.5 mM). Treated and control […] data were corrected for time dependent decay of fluorescence using data from the untreated lysed controls.
Normally 4 compound-treated samples (at 4 different concentrations) interspersed with 3 control samples were evaluated at 4.5 minute intervals starting 18-23 minutes after the DMSO treatment. The Ia50 values were calculated as described earlier. The compound concentrations effecting 50% inhibition (Ica50) of collagen-induced cytosolic ionized calcium values was determined by linear regression analysis.
Compounds I-rac, (+)-I,(IC) and (-)-I(IA) were evaluated. The Ia50 (collagen-induced aggregation) and Ica50 (compound concentration required to inhibit by 50% the collagen-induced rise in cytosolic ionized calcium)values determined with platelet suspensions in HEPES-buffered saline containing 1.0 mM CaCl2 were as follows:
Collagen-stimulation of platelets suspended in media containing 1.0 mM of Ca^2+ (FIG. 13) or 1.0 mM (FIG. 14A) or 2.0 mM (FIG. 14B) EGTA (a calcium chelator) gave […] cytosolic ionized calcium peak (aequorin-indicated luminescence). Contrarily, two phases of Ca^2+ mobilization were observed when aequorin-loaded human platelets suspended in a medium containing 0.1 mM EGTA were stimulated with collagen (FIG. 14, designation D). The first corresponded to platelet shape change and the second peak to aggregation. […] The platelet suspension (1.0 ml) was pre-incubated with 1.0 μl of (A) 95% ethanol, (B) a solution of Compound I (14.59 μM) in 95% ethanol, or (C) a solution of Compound I (23.87 μM) in 95% ethanol. Collagen (20 μg) was added at time indicated by the arrows. Luminescence was again recorded at a gain of 0.5. […] Accordingly, the stereo-selective inhibitory properties of the compounds of the present invention appear to be mediated through the inhibition of [Ca^2+ ].

For `CCN(CC)C(=O)C1CCCN(Cc2ccc(CN3CCCC(C(=O)N(CC)CC)C3)cc2)C1` (racemic) [Compound I, α-α'-Bis[3-(N,N-diethyl-carbamoyl)piperidino]-p-xylene dihydrobromide], which ED50 [1] is on record?
The ED50 was 104 mg/kg and 164 µmol/kg.

What about the “Effect on platelet shape change peak and aggregation peak of Ca2+ mobilization” value ([2]; 0.1 mM EGTA, collagen 20 μg, Compound I 14.59 μM or 23.87 μM (FIG. 15)) of the same compound?
Its value is “inhibited both the platelet shape change peak and the aggregation peak”.

What about the IC50 ([2]; Homo sapiens, Platelet, collagen-induced) of the same compound?
The IC50 was 21.2 µM.

What does the source list for `CCN(CC)C(=O)C1CCCN(Cc2ccc(CN3CCCC(C(=O)N(CC)CC)C3)cc2)C1` (single isomer, unassigned) [IC, α-α'-Bis(3-N,N-diethylcarbamoyl)piperidino]-p-xylene dihydrobromide]?
Potency in protecting mice from thromboembolic death relative to racemic I.2HBr ([1]; i.p.): approximately three times more potent; ED50 [1]: 33.5 mg/kg and 71.2 µmol/kg; IC50 ([2]; collagen-induced, listed as IC (+)-I, dihydrobromide): 3.6 ± 1.2 µM; Potency in inhibiting the rise of cytosolic ionized calcium compared to racemic I, I-A and IB ([2]; collagen-induced, Ca2+-containing medium): much more potent
